Reference: US20120115817A1, “PHTHALIMIDE DERIVATIVES OF NON-STEROIDAL ANTI-INFLAMMATORY COMPOUNDS AND/OR TNF-ALPHA MODULATORS, METHOD FOR PRODUCING SAME, PHARMACEUTICAL COMPOSITIONS CONTAINING SAME AND USES THEREOF FOR THE TREATMENT OF INFLAMMATORY DISEASES” (EMS S.A., priority 2009, published 2012)
“Also recorded” adds a separate entry of the source.

Tests used:
[1] = system: abdominal contortions induced by acetic acid; assay: Abdominal contortion test induced by acetic acid; format: in vivo, Swiss mice; conditions: mice, oral; for inhibitory activity of abdominal contortion: 100 μmol/kg (FIG. 8); for Average (abdominal contortions): acetic acid 0.1 N; for % of inhibition of abdominal contortions: acetic acid 0.1 N (Table 2)
Method: Additionally, we conducted the evaluation of possible adverse reactions of the compounds of the invention through the abdominal contortion test induced by acetic acid. […] The results are represented in FIG. 8.
The antinociceptive profile was evaluated by testing abdominal contortions induced by acetic acid in mice. In this assay, there were used Swiss mice of both sexes weighing between 21 and 28 g, fasted for a period of approximately 8 hours. The test-substance was administered orally and had as the gum Arabic at 5% as vehicle. One hour later, it was administered acetic acid at 0.1 N (0.1 mL/10 g weight) in the peritoneal cavity of the animals. Ten minutes after injection of acetic acid, the contortions were counted for 20 minutes.

[2] = system: gastric mucosa; assay: Gastric lesion test (gastric ulcerogenesis); format: in vivo, rat; design: key to grade of gastric lesion (ulceration): ground zero for the ulceration of compounds that do not damage the gastric lining; lesions <1 mm=grade 1; 1.5 to 2.5 mm grade 2; 2.5 to 3.5 mm=grade 3; 3.5 to 4.5 mm, and grade 4; >4.5 mm=grade 5; conditions: for grade of gastric lesion (ulceration) / change in color or morphology of the gastric mucosa / lesion on the gastric lining / gastric ulceration: single dose of 100 μmol/kg; for grade of gastric lesion (ulceration): scale zero to 5
Text: We performed the evaluation of gastric lesions caused by new anti-inflammatory derived from phthalimide of the invention and compared with standard anti-inflammatory drugs (without molecular modification). The compounds were classified according to the grade of damage caused on a scale ranging from 1-5. It was assumed that: lesions <1 mm=grade 1, 1.5 to 2.5 mm grade 2, 2.5 to 3.5 mm=grade 3, 3.5 to 4.5 mm, and grade 4=>4.5 mm=grade 5. The results obtained were reported as averages±E. P. M. All results were submitted to the variance homogeneity test (Levene's Test) to confirm homogeneity. The results with not significant p (above 0.05), were subsequently subjected to Variance Analysis (ANOVA) followed by multiple comparison test (post hoc analyses) such as the Newman-Keul's test, and only the values of p were considered when they were equal or below 0.05.
The stomachs were also evaluated on the number of lesions observed.
In order to characterize the profile of gastric lesion caused by the new anti-inflammatory derivatives of the invention the extent of the lesions caused by the administration of said anti-inflammatory agents was measured.
The gastric ulcerogenesis was verified in the same animals from the groups used for the paw's edema model.
After six hours of readings of the legs, the animals were euthanized in CO2 and had their stomachs removed, opened towards greater curvature and washed with saline.
Through the exposure of the mucosa its color and integrity were shown. In the case of the existence of lesions, these were counted and measured according to the rate of gastric ulcerogenesis (IUG), which abides by numerical criteria for the classification of gastric mucosal lesions: (lesions <1 mm=1; 1.5 to 2.5 mm=2; 2.5 to 3.5 mm=3, 3.5 to 4.5 mm=4 and >4.5 mm=5). The results obtained were reported as averages±E. P. M.

[3] = system: rat paw edema induced by carrageenan; assay: Rat paw edema induced by carrageenan; format: in vivo, Wistar rat; conditions: orally; for anti-inflammatory activity compared with carrageenan-only control / anti-inflammatory activity compared with the standard NSAID: single dose of 100 μmol/kg
Method: The anti-inflammatory activity of new phthalmidic derivatives claimed in this patent was evaluated through the model of paw edema induced by carrageenin.
The methodology to be reported can be found in detail in Bandarage, U. K.; Chen, L.; Fang, X.; Garvey, U. S.; Glavin, A.; Janero, D. R.; Letts, L. G.; Mercer, G. J.; Saha, J. K.; Schroeder, J. D.; Shumway, M. J.; Tam, S. W. Nitrosothiol Esters of Diclofenac: Synthesis and Pharmacological Characterization of the Gastrointestinal-Sparing Prodrugs. J. Med. Chem. v. 43, p. 4005-4016, 2000.
The injection of carrageenan in Wistar rat paw causes edema and local inflammation which can be seen by the increased thickness of the rat paw. Pre-treatment with compounds that have anti-inflammatory activity decreases the edema and inflammation caused by carrageenan administration.
The compounds of this invention have been administrated one (1) hour before inoculation of the irritating agent, carrageenan in the paws of the animals with the aid of a gavage tube orally, using water as a solvent.
The monitoring of the inflammation and the anti-inflammatory activity of the compounds of the invention was made by measuring the thickness in millimeters, of the rat's paw.
The control group received sub plantar injection, in the hind paws, the irritating chemical agent, carrageenan, and saline solution, orally.
The hind paws were measured before treatment and hourly for 6 hours after administration of carrageenan, through the thickness to determine their volumes (in mm). The results were expressed as the difference between the readings of the paws before and after treatments.

[4] = system: abdominal contortions induced by acetic acid; conditions: reports in the literature; cited from earlier work

O=C(NN1C(=O)c2ccccc2C1=O)c1ccccc1O [Example 1.3, N-(1,3-dioxy-1,3-dihydro-2H-isoindol-2-yl)-2-hydroxybenzamide]
analgesic activity ([1]; 100 μmol/kg): showed no analgesic activity | inhibitory activity of abdominal contortion [1]: around 17.2% | Average (abdominal contortions) ([1]; 100 μmol/kg): 54.5 | % of inhibition of abdominal contortions ([1]; 100 μmol/kg): 17.2% | total area of lesions ([2]; observed in six stomachs, 100 μmol/kg): 2.9 mm^2 | size of microlesions on the stomach lining ([2]; rat, 100 μmol/kg): less than 1 mm | grade of gastric lesion (ulceration) ([2]; rat): 1 (lesions <1 mm=grade 1) | anti-inflammatory activity compared with carrageenan-only control [3]: significant anti-inflammatory activity

COc1ccc2cc([C@H](C)C(=O)O)ccc2c1 [naproxen, reference compound]
inhibitory activity of abdominal contortion [1]: about 43% | grade of gastric lesion (ulceration) ([2]; rat): 5 (>4.5 mm=grade 5)

Cc1ccc(Nc2c(F)cccc2Cl)c(CC(=O)O)c1 [lumiracoxib, reference compound]
grade of gastric lesion (ulceration) ([2]; rat): 2 (1.5 to 2.5 mm grade 2)

O=C(O)c1ccccc1O [salicylic acid, reference compound]
grade of gastric lesion (ulceration) ([2]; rat): 5 (>4.5 mm=grade 5)

Cc1ccc(-c2cc(C(F)(F)F)nn2-c2ccc(S(N)(=O)=O)cc2)cc1 [celecoxib, reference compound]
grade of gastric lesion (ulceration) ([2]; rat): 2 (1.5 to 2.5 mm grade 2)

Cc1ccc(Nc2c(F)cccc2Cl)c(CC(=O)NN2C(=O)c3ccccc3C2=O)c1 [Example 6.3, 2-{2-[(2-chloro-6-fluorophenyl)amine]-5-methylphenyl}-N-(1,3-dioxy-1,3-dihydro-2H-isoindol-2-1)acetamide]
change in color or morphology of the gastric mucosa ([2]; rat): did not observe any—macro- and microscopically—morphological change or in the color of the stomach tissue | lesion on the gastric lining / gastric ulceration ([2]; rat): no lesion on the gastric lining | grade of gastric lesion (ulceration) ([2]; rat): zero | anti-inflammatory activity compared with carrageenan-only control [3]: significant anti-inflammatory activity

CC(C)Cc1ccc(C(C)C(=O)O)cc1 (stereo not shown) [ibuprofen, reference compound]
grade of gastric lesion (ulceration) ([2]; rat): 5 (>4.5 mm=grade 5)

COc1ccc2cc(C(C)C(=O)NN3C(=O)c4ccccc4C3=O)ccc2c1 (stereo not shown) [Example 3.3, N-(1,3-dioxy-1,3-dihydro-2H-isoindol-2-yl)-2-(6-methoxy-2-naphtyl)propanamide]
inhibitory activity of abdominal contortion [1]: around 42.5% | Average (abdominal contortions) ([1]; 100 μmol/kg): 37.8 | % of inhibition of abdominal contortions ([1]; 100 μmol/kg): 42.5% | change in color or morphology of the gastric mucosa ([2]; rat): did not observe any—macro- and microscopically—morphological change or in the color of the stomach tissue | lesion on the gastric lining / gastric ulceration ([2]; rat): no lesion on the gastric lining | grade of gastric lesion (ulceration) ([2]; rat): zero | anti-inflammatory activity compared with carrageenan-only control [3]: significant anti-inflammatory activity | anti-inflammatory activity compared with the standard NSAID [3]: superior activity compared with ibuprofen; also recorded: much greater than naproxen

CC(C(=O)NN1C(=O)c2ccccc2C1=O)c1cccc(C(=O)c2ccccc2)c1 (stereo not shown) [Example 4.3, 2-(3-benzoylphenyl)-N-(1,3-dioxy-1,3-dihydro-2H-isoindol-2-yl)propanamide]
inhibitory activity of abdominal contortion [1]: ~37.9% | Average (abdominal contortions) ([1]; 100 μmol/kg): 40.8 | % of inhibition of abdominal contortions ([1]; 100 μmol/kg): 37.9%

CC(C)Cc1ccc(C(C)C(=O)NN2C(=O)c3ccccc3C2=O)cc1 (stereo not shown) [Example 2.3, N-(1,3-dioxy-1,3-dihydro-2H-isoindol-2-yl)-2-(4-isobutylphenyl)propanamide]
change in color or morphology of the gastric mucosa ([2]; rat): a little change in color of the mucosa | lesion on the gastric lining / gastric ulceration ([2]; rat): no lesion on the gastric lining | grade of gastric lesion (ulceration) ([2]; rat): zero | anti-inflammatory activity compared with carrageenan-only control [3]: significant anti-inflammatory activity | anti-inflammatory activity compared with the standard NSAID [3]: superior activity compared with ibuprofen

O=C(O)Cc1ccccc1Nc1c(Cl)cccc1Cl [diclofenac, reference compound]
analgesic activity in this model according to the literature [4]: do not have analgesic activity | grade of gastric lesion (ulceration) ([2]; rat): 5 (>4.5 mm=grade 5)

O=C(Cc1ccccc1Nc1c(Cl)cccc1Cl)NN1C(=O)c2ccccc2C1=O [Example 5.3, 2-{2-[(2,6-dichlorophenyl)amino]phenyl}-N-(1,3-dioxy-1,3-dihydro-2H-isoindol-2-yl)acetamide]
inhibitory activity of abdominal contortion [1]: ~16.2% | Average (abdominal contortions) ([1]; 100 μmol/kg): 55.1 | % of inhibition of abdominal contortions ([1]; 100 μmol/kg): 16.2% | change in color or morphology of the gastric mucosa ([2]; rat): a little change in the color of the mucosa | lesion on the gastric lining / gastric ulceration ([2]; rat): no lesion on the gastric lining | grade of gastric lesion (ulceration) ([2]; rat): zero | anti-inflammatory activity compared with diclofenac at 120 minutes ([3]; 100 μmol/kg, time of 120 minutes): significantly higher anti-inflammatory activity than that of diclofenac | anti-inflammatory activity compared with diclofenac at 240 and 360 minutes ([3]; 100 μmol/kg, times 240 and 360 minutes): same activity profile is kept | anti-inflammatory activity compared with carrageenan-only control [3]: significant anti-inflammatory activity | anti-inflammatory activity compared with the standard NSAID [3]: significant anti-inflammatory activity when compared to positive control (carrageenan), and to diclofenac
